Data taken from ChEMBL document CHEMBL2429758, “3-aroylmethylene-2,3,6,7-tetrahydro-1H-pyrazino[2,1-a]isoquinolin-4(11bH)-ones as potent Nrf2/ARE inducers in human cancer cells and AOM-DSS treated mice” (J Med Chem, 2013).

Legend:
Type in all cases: cell-based
[1] = biological target: T1, Nuclear factor erythroid 2-related factor 2 (Homo sapiens) (UniProt Q16236); assay: Induction of Nrf2-mediated ARE activity in human HepG2-ARE-C8 cells at 0.01 uM after 12 hrs by luciferase reporter gene assay relative to control
T1 sequence (whole entry): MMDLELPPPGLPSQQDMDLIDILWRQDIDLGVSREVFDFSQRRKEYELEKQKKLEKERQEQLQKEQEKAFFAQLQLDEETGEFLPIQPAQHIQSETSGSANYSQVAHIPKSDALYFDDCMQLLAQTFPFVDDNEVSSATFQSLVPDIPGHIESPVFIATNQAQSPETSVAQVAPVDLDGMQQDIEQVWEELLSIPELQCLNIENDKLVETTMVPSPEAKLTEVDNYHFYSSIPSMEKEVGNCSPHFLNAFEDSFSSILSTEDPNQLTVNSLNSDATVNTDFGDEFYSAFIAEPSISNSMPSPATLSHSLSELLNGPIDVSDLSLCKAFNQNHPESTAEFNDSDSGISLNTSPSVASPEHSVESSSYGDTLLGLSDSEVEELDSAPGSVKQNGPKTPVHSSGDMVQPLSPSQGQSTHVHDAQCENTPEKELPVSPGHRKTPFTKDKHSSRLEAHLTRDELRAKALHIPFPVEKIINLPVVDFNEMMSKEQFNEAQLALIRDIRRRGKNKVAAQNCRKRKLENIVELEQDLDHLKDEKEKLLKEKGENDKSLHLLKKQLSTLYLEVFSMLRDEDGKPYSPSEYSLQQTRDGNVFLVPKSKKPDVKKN

[2] = biological target: T1, Nuclear factor erythroid 2-related factor 2 (Homo sapiens); assay: Induction of Nrf2-mediated ARE activity in human HepG2-ARE-C8 cells at 5 uM after 12 hrs by luciferase reporter gene assay relative to control
[3] = biological target: T1, Nuclear factor erythroid 2-related factor 2 (Homo sapiens); assay: Induction of Nrf2-mediated ARE activity in human HepG2-ARE-C8 cells at 1 uM after 12 hrs by luciferase reporter gene assay relative to control
[4] = biological target: T1, Nuclear factor erythroid 2-related factor 2 (Homo sapiens); assay: Induction of Nrf2-mediated ARE activity in human HepG2-ARE-C8 cells at 10 uM after 12 hrs by luciferase reporter gene assay relative to control
[5] = biological target: T1, Nuclear factor erythroid 2-related factor 2 (Homo sapiens); assay: Induction of Nrf2-mediated ARE activity in human HepG2-ARE-C8 cells at 0.1 uM after 12 hrs by luciferase reporter gene assay relative to control

SMILES | fold change (FC) [1] | fold change (FC) [2] | fold change (FC) [3] | fold change (FC) [4] | fold change (FC) [5]
COc1cccc2c1CCN1C(=O)/C(=C/C(=O)c3ccccc3)NCC21 (stereo not given) | 1 | 6.89 | 3.57 | 6.93 | 3.53
O=C(/C=C1\NCC2c3ccccc3CCN2C1=O)c1cccc(C(F)(F)F)c1 (stereo not given) | 2.22 | 3.14 | 1.76 | 3.25 | 1.7
COc1cccc2c1CCN1C(=O)/C(=C/C(=O)c3cccc(F)c3)NCC21 (stereo not given) | 0.79 | 4.85 | 4.02 | 3.7 | 1.43
COc1ccc(C(=O)/C=C2\NCC3c4ccccc4CCN3C2=O)cc1OC (stereo not given) | 1.52 | 2.11 | 1.93 | 2.15 | 1.77
O=C(/C=C1\NCC2c3ccccc3CCN2C1=O)c1ccc(Cl)cc1 (stereo not given) | 1.3 | 3.57 | 2.61 | 4 | 2.33
O=C(/C=C1\NCC2c3ccccc3CCN2C1=O)c1ccc(F)c(F)c1 (stereo not given) | 2.12 | 5.47 | 3.23 | 6.38 | 2.25
COc1cccc2c1CCN1C(=O)/C(=C/C(=O)c3ccccc3F)NCC21 (stereo not given) | 1.93 | 5.89 | 2.98 | 4.26 | 2.83
O=C(/C=C1\NCC2c3ccccc3CCN2C1=O)c1ccc(-c2ccccc2)cc1 (stereo not given) | 1.62 | 1.69 | 1.41 | 2.09 | 1.67
COc1cc2c(cc1OC)C1CN/C(=C\C(=O)c3ccccc3)C(=O)N1CC2 (stereo not given) | 0.86 | 1.46 | 1.35 | 1.67 | 0.85
O=C(/C=C1\NCC2c3ccccc3CCN2C1=O)c1cc(F)cc(F)c1 (stereo not given) | 1.34 | 5.22 | 4.75 | 7.62 | 2.92
O=C(/C=C1\NCC2c3ccccc3CCN2C1=O)c1ccccc1F (stereo not given) | 2.5 | 16.5 | 8.85 | 16.9 | 3.64

More lines, now with the values ahead:

fold change (FC) [1] | fold change (FC) [2] | fold change (FC) [3] | fold change (FC) [4] | fold change (FC) [5] | SMILES
1.08 | 1.36 | 1.24 | 1.59 | 1.21 | COc1cccc(C(=O)/C=C2\NCC3c4cc(OC)ccc4CCN3C2=O)c1 (stereo not given)
1.94 | 14 | 10.7 | 16.5 | 3.77 | O=C(/C=C1\NCC2c3ccccc3CCN2C1=O)c1cccc(Cl)c1 (stereo not given)
2.26 | 6.49 | 4.53 | 7.28 | 2.28 | COc1ccc2c(c1)C1CN/C(=C\C(=O)c3cccc(Cl)c3)C(=O)N1CC2 (stereo not given)
1.35 | 10.4 | 3.5 | 13 | 1.93 | COc1ccc2c(c1)C1CN/C(=C\C(=O)c3ccccc3)C(=O)N1CC2 (stereo not given)
1.44 | 9.84 | 3.44 | 12.4 | 2.75 | COc1ccc2c(c1)C1CN/C(=C\C(=O)c3ccccc3F)C(=O)N1CC2 (stereo not given)
1.48 | 8.65 | 5.68 | 10 | 3.69 | COc1cccc(C(=O)/C=C2\NCC3c4ccccc4CCN3C2=O)c1 (stereo not given)
1.45 | 5.76 | 3.08 | 6.5 | 1.75 | COc1ccc2c(c1)C1CN/C(=C\C(=O)c3cccc([N+](=O)[O-])c3)C(=O)N1CC2 (stereo not given)
